The molecules below were run against T1, RORc ligand binding domain (Homo sapiens, UniProt P51449) (assay: In vitro RORc ligand binding assay (25-[3H]hydroxycholesterol displacement, filter binding)).
T1 construct: host or cells: E. coli
T1 sequence (P51449 269-508 limits assumed): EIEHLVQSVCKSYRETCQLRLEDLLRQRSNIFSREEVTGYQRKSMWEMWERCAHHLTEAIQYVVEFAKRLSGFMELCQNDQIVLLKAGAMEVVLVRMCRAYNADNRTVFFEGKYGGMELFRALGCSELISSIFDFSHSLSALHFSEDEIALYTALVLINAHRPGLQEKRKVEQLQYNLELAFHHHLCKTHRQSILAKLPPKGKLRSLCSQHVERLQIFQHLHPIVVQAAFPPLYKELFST
Procedure: This assay was used to determine a compound's potency in inhibiting activity of RORc by determining, Kiapp, IC50, or percent inhibition values.
On day of the assay, 100 uL of 0.05% CHAPS (in deionized H2O) was added to all wells of the GFB Unifilter plate and allowed soak for 1 h. A wash buffer of 50 mM HEPES (pH 7.4), 150 mM NaCl, and 5 mM MgCl2 was prepared to wash the filter plate. To prepare an assay buffer, BSA was added to the wash buffer to reach 0.01% and DTT was added to reach 1 mM.
The 20× compound stocks were diluted in DMSO with Assay Buffer 4-fold to reach 5× the final test concentration in 25% DMSO (10 uL compound+30 uL Assay Buffer). Solutions were mixed by aspiration several times with a pipette set on 50 uL volume. For the assay, 10 uL of 5× compound stock solutions in 25% DMSO were added to the assay plate in duplicate.
For two point screening, 10 mM stock compound solutions were diluted in DMSO to obtain 200 uM (20× the high test concentration) and then diluted 10-fold further to reach 20 uM (20× the low test concentration). The 20× stocks were diluted 4-fold with Assay Buffer (10 uL compound+30 uL Assay Buffer) to reach 5× the test concentrations (50 uM and 5 uM) and 10 uL were added to two assay plates for the duplicate wells. With each concentration tested on 2 plates, each set of 80 compounds used 4 assay plates (1 uM and 10 uM, with n=2).
For 25-hydroxycholesterol in 25% DMSO/75% Assay Buffer; 10 uL per well was used for NSB samples. Wells for Total Binding and No Receptor sample determination contained 10 uL of 25% DMSO/75% Assay Buffer per well.
Add 20 uL to all wells to reach 6 nM final concentration in the assay.
Stock receptor solution was diluted in assay buffer to obtain 1.5 ug/mL in Assay Buffer. 20 uL was added to all wells. For No Receptor samples, 20 uL Assay Buffer was substituted for receptor solution.
Assay plates were 96-well polypropylene V-bottom plates. 10 uL of 5× compound in 25% DMSO/75% Assay Buffer was added to Test wells. 10 uL of 25% DMSO/75% Assay Buffer was added to Total Binding or No Receptor wells. 10 uL of 5 uM 25-hydroxycholesterol in 25% DMSO/75% Assay Buffer was added to NSB wells. […] 20 uL of 1.5 ug/mL RORc receptor was added to wells (or 40 uL Assay Buffer to No R wells). Following addition to the wells, the plates were incubated 3 h at 25° C.
Using a Packard Filtermate Harvester, the filter plate were washed 4 times following transfer of the incubated samples. Plates were dry-filtered completely (2 h at 50° C. or overnight at room temperature). 50 uL Microscint 0 was added to all wells and read on Topcount protocol Inverted.
`CC1(C)[C@H]2CC[C@]1(Oc1ncccn1)c1nnc(-c3c(F)cccc3F)cc12` [Compound 14, (5S,8R)-3-(2,6-difluorophenyl)-9,9-dimethyl-8-(pyrimidin-2-yloxy)-5,6,7,8-tetrahydro-5,8-methanocinnoline] showed an IC50 of 0.084 µM.
For `CC[C@@H](O[C@@]12CC[C@@H](c3cc(-c4c(F)cccc4F)nnc31)C2(C)C)C(=O)NNC(C)=O` [Compound 58, (R)-N′-acetyl-2-(((5S,8R)-3-(2,6-difluorophenyl)-9,9-dimethyl-5,6,7,8-tetrahydro-5,8-methanocinnolin-8-yl)oxy)butanehydrazide], the IC50 was 0.105 µM.
`CN1CCN(C(N)=O)[C@@H]([C@@]23CC[C@@H](c4cc(-c5c(F)cccc5F)nnc42)C3(C)C)C1` [Compound 181, 2-[5-(2,6-difluorophenyl)-11,11-dimethyl-3,4-diazatricyclo[6.2.1.02,7]undeca-2,4,6-trien-1-yl]-4-methyl-piperazine-1-carboxamide] was tested, and the IC50 was 0.062 µM.
`CC[C@H](O[C@@]12CC[C@@H](c3cc(-c4c(F)cccc4F)nnc31)C2(C)C)C(=O)OC` [Compound 110, methyl (2S)-2-[[(1R,8S)-5-(2,6-difluorophenyl)-11,11-dimethyl-3,4-diazatricyclo[6.2.1.02,7]undeca-2,4,6-trien-1-yl]oxy]butanoate] showed an IC50 of 0.1 µM.
`CN1CCO[C@@H]([C@@]23CC[C@@H](c4cc(-c5c(F)cccc5F)nnc42)C3(C)C)C1` [Compound 71, (S)-2-((5R,8R)-3-(2,6-difluorophenyl)-9,9-dimethyl-5,6,7,8-tetrahydro-5,8-thanocinnolin-8-yl)-4-methylmorpholine] was tested, and the IC50 was 0.375 µM.
With `CC1(C)[C@H]2CC[C@]1([C@@H]1CN(S(C)(=O)=O)CCO1)c1nnc(-c3c(F)cccc3F)cc12` [Compound 65, (R)-2-((5R,8R)-3-(2,6-difluorophenyl)-9,9-dimethyl-5,6,7,8-tetrahydro-5,8-methanocinnolin-8-yl)-4-(methylsulfonyl)morpholine] the IC50 was 0.224 µM.
`CC1(C)[C@H]2CC[C@]1([C@H]1CCCN(c3ccncn3)C1)c1nnc(-c3c(F)cccc3F)cc12` [Compound 164, 5-(2,6-difluorophenyl)-11,11-dimethyl-1-(1-pyrimidin-4-yl-3-piperidyl)-3,4-diazatricyclo[6.2.1.02,7]undeca-2,4,6-triene] was tested, and the IC50 was 0.02 µM.
For `C[C@@H](O)CNC(=O)N1CCC[C@H]([C@@]23CC[C@@H](c4cc(-c5c(F)cccc5F)nnc42)C3(C)C)C1` [Compound 154, 3-[5-(2,6-difluorophenyl)-11,11-dimethyl-3,4-diazatricyclo[6.2.1.02,7]undeca-2,4,6-trien-1-yl]-N-(2-hydroxypropyl)piperidine-1-carboxamide], the IC50 was 0.015 µM.
`CN1CCN(C)[C@H]([C@@]23CC[C@@H](c4cc(-c5c(F)cccc5F)nnc42)C3(C)C)C1` [Compound 180, 5-(2,6-difluorophenyl)-1-(1,4-dimethylpiperazin-2-yl)-11,11-dimethyl-3,4-diazatricyclo[6.2.1.02,7]undeca-2,4,6-triene] was tested, and the IC50 was 0.016 µM.
`CC[C@@H](O[C@@]12CC[C@@H](c3cc(-c4c(F)cccc4F)nnc31)C2(C)C)C(=O)N1CC(CO)C1` [Compound 38, (R)-2-(((5S,8R)-3-(2,6-difluorophenyl)-9,9-dimethyl-5,6,7,8-tetrahydro-5,8-methanocinnolin-8-yl)oxy)-1-(3-(hydroxymethyl)azetidin-1-yl)butan-1-one] showed an IC50 of 0.144 µM.
In the case of `CCOC(=O)c1coc(N2CCO[C@H]([C@@]34CC[C@@H](c5cc(-c6c(F)cccc6F)nnc53)C4(C)C)C2)n1` [Compound 126, ethyl 2-[2[5-(2,6-difluorophenyl)-11,11-dimethyl-3,4-diazatricyclo[6.2.1.02,7]undeca-2,4,6-trien-1-yl]morpholin-4-yl]oxazole-4-carboxylate], the IC50 is reported as 0.43 µM.
`CC1(C)[C@H]2CC[C@]1(OS(=O)(=O)C(F)(F)F)c1nnc(-c3c(F)cccc3F)cc12` [Compound 6, (5S,8R)-3-(2,6-difluorophenyl)-9,9-dimethyl-5,6,7,8-tetrahydro-5,8-methanocinnolin-8-yl trifluoromethanesulfonate] was tested, and the IC50 was 0.006 µM.
In the case of `CC[C@@H](O[C@@]12CC[C@@H](c3cc(-c4c(F)cccc4F)nnc31)C2(C)C)C(=O)NCc1n[nH]c(=O)[nH]1` [Compound 56, (R)-2-(((5S,8R)-3-(2,6-difluorophenyl)-9,9-dimethyl-5,6,7,8-tetrahydro-5,8-methanocinnolin-8-yl)oxy)-N-((5-oxo-4,5-dihydro-1H-1,2,4-triazol-3-yl)methyl)butanamide], the IC50 is reported as 0.0952 µM.
`CC1(C)[C@H]2CC[C@]1([C@H]1CN(CC(F)F)CCO1)c1nnc(-c3c(F)cccc3F)cc12` [Compound 80, (S)-4-(2,2-difluoroethyl)-2-((5R,8R)-3-(2,6-difluorophenyl)-9,9-dimethyl-5,6,7,8-tetrahydro-5,8-methanocinnolin-8-yl)morpholine] was tested, and the IC50 was 0.674 µM.
With `CC1(C)[C@H]2CC[C@]1(OCC(N)=O)c1nnc(-c3c(F)cccc3F)cc12` [Compound 47, 2-(((5S,8R)-3-(2,6-difluorophenyl)-9,9-dimethyl-5,6,7,8-tetrahydro-5,8-methanocinnolin-8-yl)oxy)acetamide] the IC50 was 0.118 µM.
Work on `CC1(C)[C@H]2CC[C@]1(c1nnc(C(N)=O)o1)c1nnc(-c3c(F)cccc3F)cc12` [Compound 2, 5-((5R,8R)-3-(2,6-difluorophenyl)-9,9-dimethyl-5,6,7,8-tetrahydro-5,8-methanocinnolin-8-yl)-1,3,4-oxadiazole-2-carboxamide] yielded an IC50 of 0.52 µM.
`CN(C)C(=O)N1CCO[C@H]([C@@]23CC[C@@H](c4cc(-c5c(F)cccc5F)nnc42)C3(C)C)C1` [Compound 88, (R)-2-((5R,8R)-3-(2,6-difluorophenyl)-9,9-dimethyl-5,6,7,8-tetrahydro-5,8-methanocinnolin-8-yl)-N,N-dimethylmorpholine-4-carboxamide] gave an IC50 of 0.369 µM.
Molecule `Cc1n[nH]c(N2CCC[C@H]([C@@]34CC[C@@H](c5cc(-c6c(F)cccc6F)nnc53)C4(C)C)C2)n1` [Compound 173, 5-(2,6-difluorophenyl)-11,11-dimethyl-1-[1-(3-methyl-1H-1,2,4-triazol-5-yl)-3-piperidyl]-3,4-diazatricyclo[6.2.1.02,7]undeca-2,4,6-triene] has an IC50 of 0.0028 µM.
Molecule `CC[C@H](CO)O[C@@]12CC[C@@H](c3cc(-c4c(F)cccc4F)nnc31)C2(C)C` [Compound 35, (R)-2-(((5S,8R)-3-(2,6-difluorophenyl)-9,9-dimethyl-5,6,7,8-tetrahydro-5,8-methanocinnolin-8-yl)oxy)butan-1-ol] has an IC50 of 0.0198 µM.
`CC1(C)[C@H]2CC[C@]1(O[C@H](C(N)=O)C1CC1)c1nnc(-c3c(F)cccc3F)cc12` [Compound 45] showed an IC50 of 0.132 µM.
For `CC1(C)[C@H]2CC[C@]1([C@H]1CCCN(C(=O)NC3(CO)COC3)C1)c1nnc(-c3c(F)cccc3F)cc12` [Compound 171], the IC50 was 0.0065 µM.
`CC1(C)[C@H]2CC[C@]1(Oc1nccnc1C(=O)NCCO)c1nnc(-c3c(F)cccc3F)cc12` [Compound 18, 3-(((5S,8R)-3-(2,6-difluorophenyl)-9,9-dimethyl-5,6,7,8-tetrahydro-5,8-methanocinnolin-8-yl)oxy)-N-(2-hydroxyethyl)pyrazine-2-carboxamide] showed an IC50 of 0.34 µM.
Molecule `CCNC(=O)N1CCC[C@H]([C@@]23CC[C@@H](c4cc(-c5c(F)cccc5F)nnc42)C3(C)C)C1` [Compound 136, 3-[5-(2,6-difluorophenyl)-11,11-dimethyl-3,4-diazatricyclo[6.2.1.02,7]undeca-2,4,6-trien-1-yl]-N-ethyl-piperidine-1-carboxamide] has an IC50 of 0.029 µM.
Molecule `CCC[C@@H](O[C@@]12CC[C@@H](c3cc(-c4c(F)cccc4F)nnc31)C2(C)C)C(N)=O` [Compound 49, (R)-2-(((5S,8R)-3-(2,6-difluorophenyl)-9,9-dimethyl-5,6,7,8-tetrahydro-5,8-methanocinnolin-8-yl)oxy)pentanamide] has an IC50 of 0.0154 µM.
